Key:
GCN2 kinase = GCN2 kinase (Homo sapiens, UniProt Q9P2K8); assay: GCN2 enzyme inhibition assay (Transcreener ADP2 fluorescence polarization); type: biochemical; conditions: compounds of Formula II; 280 μM ATP, 4 nM GCN2 kinase
In short: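 Inhibition of 4 nM GCN2 was measured with compound up to 8 μM final, ATP 280 μM and (RS)7 peptide 200 μM over a 1 h, 25 °C reaction. ADP FP readout; IC50 and Ki(app) calculated from percent inhibition.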

[1] = target: intracellular GCN2 (phosphorylation of the GCN2 substrate eIF2α) (Homo sapiens, UniProt Q9P2K8); assay: GCN2 cellular inhibition assay (AlphaScreen SureFire P-eIF2α Ser51, borrelidin-treated U2OS cells); type: cell-based; conditions: compounds of Formula II; biomarker assay, phosphorylated eIF2α Ser51 in borrelidin-treated U2OS cells
intracellular GCN2 (phosphorylation of the GCN2 substrate eIF2α), sequence (Q9P2K8 whole entry): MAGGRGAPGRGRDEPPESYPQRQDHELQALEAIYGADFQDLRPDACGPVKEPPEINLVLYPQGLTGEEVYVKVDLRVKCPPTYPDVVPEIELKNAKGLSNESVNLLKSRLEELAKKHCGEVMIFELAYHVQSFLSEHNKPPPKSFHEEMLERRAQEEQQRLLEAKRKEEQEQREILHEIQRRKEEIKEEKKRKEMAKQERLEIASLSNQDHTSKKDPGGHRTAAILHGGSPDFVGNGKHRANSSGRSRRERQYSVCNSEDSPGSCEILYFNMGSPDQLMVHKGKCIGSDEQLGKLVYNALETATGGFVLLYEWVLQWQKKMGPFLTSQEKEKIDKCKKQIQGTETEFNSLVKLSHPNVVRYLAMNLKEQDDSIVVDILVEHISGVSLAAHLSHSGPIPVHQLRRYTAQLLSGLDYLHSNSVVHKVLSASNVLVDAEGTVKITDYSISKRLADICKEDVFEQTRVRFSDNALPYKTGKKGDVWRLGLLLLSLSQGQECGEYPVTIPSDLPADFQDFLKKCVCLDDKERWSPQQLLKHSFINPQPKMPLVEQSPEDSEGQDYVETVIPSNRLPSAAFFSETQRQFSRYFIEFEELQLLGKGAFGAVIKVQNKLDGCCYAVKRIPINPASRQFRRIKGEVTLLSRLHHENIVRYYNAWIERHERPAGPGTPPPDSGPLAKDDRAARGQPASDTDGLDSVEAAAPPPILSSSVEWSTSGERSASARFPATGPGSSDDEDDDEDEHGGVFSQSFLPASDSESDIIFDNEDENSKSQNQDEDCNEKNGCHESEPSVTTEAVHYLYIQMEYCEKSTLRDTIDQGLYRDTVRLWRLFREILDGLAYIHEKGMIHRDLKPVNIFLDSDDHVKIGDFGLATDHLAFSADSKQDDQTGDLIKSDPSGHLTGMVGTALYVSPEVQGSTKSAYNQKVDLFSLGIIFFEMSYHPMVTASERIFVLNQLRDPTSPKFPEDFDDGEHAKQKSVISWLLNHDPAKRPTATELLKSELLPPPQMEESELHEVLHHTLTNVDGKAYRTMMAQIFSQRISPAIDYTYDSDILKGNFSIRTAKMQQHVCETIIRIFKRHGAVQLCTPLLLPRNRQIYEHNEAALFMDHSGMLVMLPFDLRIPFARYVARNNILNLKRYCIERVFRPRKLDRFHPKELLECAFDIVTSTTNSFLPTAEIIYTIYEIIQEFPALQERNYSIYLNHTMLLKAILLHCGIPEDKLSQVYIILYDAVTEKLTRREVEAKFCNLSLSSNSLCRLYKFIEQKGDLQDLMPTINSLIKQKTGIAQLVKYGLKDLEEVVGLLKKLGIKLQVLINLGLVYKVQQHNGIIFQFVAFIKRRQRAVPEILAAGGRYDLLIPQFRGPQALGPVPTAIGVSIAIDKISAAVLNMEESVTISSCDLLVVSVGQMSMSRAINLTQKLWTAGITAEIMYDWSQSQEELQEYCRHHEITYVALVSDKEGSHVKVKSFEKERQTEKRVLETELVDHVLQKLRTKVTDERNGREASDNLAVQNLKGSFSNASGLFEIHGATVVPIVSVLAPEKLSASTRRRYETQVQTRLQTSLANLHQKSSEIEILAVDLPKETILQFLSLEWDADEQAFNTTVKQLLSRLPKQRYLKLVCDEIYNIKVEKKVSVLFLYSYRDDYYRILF
In short: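 First, U2OS cells are plated and left overnight at 37 °C. Next, compounds (from 40 μM final, 4-fold steps) and 10 μM borrelidin are added for 1 h, cells lysed, and phospho-Ser51 eIF2α detected by AlphaScreen bead sandwich. Inhibition is computed versus borrelidin-only wells.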

GCN2 kinase, sequence (Q9P2K8 whole entry): as above

SMILES | Ki (GCN2 kinase) [nM] | IC50 [1] [nM]
CN(C)C1CN(c2cc(-c3cnc4ccc(C(F)F)nn34)ncn2)CC(CNS(C)(=O)=O)C1(F)F (stereo not shown) [II-259, N-((1-(6-(6-(Difluoromethyl)imidazo[1,2-b]pyridazin-3-yl)pyrimidin-4-yl)-5-(dimethylamino)-4,4-difluoropiperidin-3-yl)methyl)methanesulfonamide] | < 10 | < 500
CN(C)C1CN(c2cc(-c3cnc4ccc(C(F)F)nn34)ncn2)CC(CNS(C)(=O)=O)C1(F)F (stereo not shown) [II-260, N-((1-(6-(6-(Difluoromethyl)imidazo[1,2-b]pyridazin-3-yl)pyrimidin-4-yl)-5-(dimethylamino)-4,4-difluoropiperidin-3-yl)methyl)methanesulfonamide] | 10 to 1000 | 500 to 5000
O=S(=O)(NCC1CCCN(c2cc(-c3cnc4ccc(C(F)F)nn34)ncn2)C1)C1CC1 (stereo not shown) [II-262, N-((1-(6-(6-(Difluoromethyl)imidazo[1,2-b]pyridazin-3-yl)pyrimidin-4-yl)piperidin-3-yl)methyl)cyclopropanesulfonamide] | < 10 | < 500
CCC1COC(CNS(C)(=O)=O)CN1c1cc(-c2cnc3ccc(C(F)F)nn23)ncn1 (stereo not shown) [II-267, N-((4-(6-(6-(Difluoromethyl)imidazo[1,2-b]pyridazin-3-yl)pyrimidin-4-yl)-5-ethylmorpholin-2-yl)methyl)methanesulfonamide] | 10 to 1000 | 500 to 5000
CC1CCC(CNS(C)(=O)=O)C(C)N1c1cc(-c2cnc3ccc(C(F)F)nn23)ncn1 (stereo not shown) [II-268, N-((1-(6-(6-(Difluoromethyl)imidazo[1,2-b]pyridazin-3-yl)pyrimidin-4-yl)-2,6-dimethylpiperidin-3-yl)methyl)methanesulfonamide] | < 10 | < 500
C[C@H]1CN(c2cc(-c3cnc4ccc(C(F)F)nn34)ncc2F)C[C@@H](CNS(C)(=O)=O)C1(F)F [II-270, N-[[(3S,5S)-1-[2-[6-(Difluoromethyl)imidazo[1,2-b]pyridazin-3-yl]-5-fluoro-4-pyridyl]-4,4-difluoro-5-methyl-3-piperidyl]methyl]methanesulfonamide] | < 10 | 500 to 5000
CC1CCC(CNS(C)(=O)=O)CN1c1cc(-c2cnc3ccc(C(F)F)nn23)ncc1F (stereo not shown) [II-271, N-[[1-[2-[6-(Difluoromethyl)imidazo[1,2-b]pyridazin-3-yl]-5-fluoro-4-pyridyl]-6-methyl-3-piperidyl]methyl]methanesulfonamide] | 10 to 1000 | 500 to 5000
O=S(=O)(NCC1CCCN(c2cc(-c3cnc4ccc(C(F)F)nn34)ncn2)C1)C1CNC1 (stereo not shown) [II-272, N-((1-(6-(6-(Difluoromethyl)imidazo[1,2-b]pyridazin-3-yl)pyrimidin-4-yl)piperidin-3-yl)methyl)azetidine-3-sulfonamide] | 10 to 1000 | > 5000
FC(F)c1ccc2ncc(-c3cc(N4CCC5C(C4)C5(F)F)ncn3)n2n1 (stereo not shown) [II-274, 3-(6-(7,7-Difluoro-3-azabicyclo[4.1.0]heptan-3-yl)pyrimidin-4-yl)-6-(difluoromethyl)imidazo[1,2-b]pyridazine] | 10 to 1000 | > 5000
CS(=O)(=O)N1CCCC2(CN(c3cc(-c4cnc5ccc(C(F)F)nn45)ncn3)C2)C1 [II-279, 6-(Difluoromethyl)-3-(6-(6-(methylsulfonyl)-2,6-diazaspiro[3.5]nonan-2-yl)pyrimidin-4-yl)imidazo[1,2-b]pyridazine] | 10 to 1000 | > 5000
CS(=O)(=O)N1CCOC2(CN(c3cc(-c4cnc5ccc(C(F)F)nn45)ncn3)C2)C1 [II-280, 2-(6-(6-(Difluoromethyl)imidazo[1,2-b]pyridazin-3-yl)pyrimidin-4-yl)-8-(methylsulfonyl)-5-oxa-2,8-diazaspiro[3.5]nonane] | 10 to 1000 | > 5000
CS(=O)(=O)N1CC2(CCCN(c3cc(-c4cnc5ccc(C(F)F)nn45)ncn3)C2)C1 [II-281, 6-(Difluoromethyl)-3-(6-(2-(methylsulfonyl)-2,6-diazaspiro[3.5]nonan-6-yl)pyrimidin-4-yl)imidazo[1,2-b]pyridazine] | < 10 | < 500
NS(=O)(=O)CCC1CCCCN1c1cc(-c2cnc3ccc(C(F)F)nn23)ncn1 (stereo not shown) [II-283, 2-(1-(6-(6-(Difluoromethyl)imidazo[1,2-b]pyridazin-3-yl)pyrimidin-4-yl)piperidin-2-yl)ethane-1-sulfonamide] | 10 to 1000 | > 5000
NS(=O)(=O)N1CCCC2(CN(c3cc(-c4cnc5ccc(C(F)F)nn45)ncn3)C2)C1 [II-284, 2-(6-(6-(Difluoromethyl)imidazo[1,2-b]pyridazin-3-yl)pyrimidin-4-yl)-2,6-diazaspiro[3.5]nonane-6-sulfonamide] | 10 to 1000 | > 5000
NS(=O)(=O)N1CCOC2(CN(c3cc(-c4cnc5ccc(C(F)F)nn45)ncn3)C2)C1 [II-285, 2-(6-(6-(Difluoromethyl)imidazo[1,2-b]pyridazin-3-yl)pyrimidin-4-yl)-5-oxa-2,8-diazaspiro[3.5]nonane-8-sulfonamide] | 10 to 1000 | > 5000
O=S(=O)(NCC1CCCN(c2cc(-c3cnc4ccc(C(F)F)nn34)ncn2)C1)C1COC1 (stereo not shown) [II-289, N-((1-(6-(6-(Difluoromethyl)imidazo[1,2-b]pyridazin-3-yl)pyrimidin-4-yl)piperidin-3-yl)methyl)oxetane-3-sulfonamide] | 10 to 1000 | 500 to 5000
CN(C[C@@H]1CN(c2cc(-c3cnc4ccc(C(F)F)nn34)ncn2)CCO1)S(C)(=O)=O [II-290, (S)—N-((4-(6-(6-(Difluoromethyl)imidazo[1,2-b]pyridazin-3-yl)pyrimidin-4-yl)morpholin-2-yl)methyl)-N-methylmethanesulfonamide] | 10 to 1000 | 500 to 5000
CS(=O)(=O)NC[C@@H]1CN(c2cc(-c3cnc4ccc(C(F)(F)F)nn34)ncn2)CCO1 [II-292, (S)—N-((4-(6-(6-(Trifluoromethyl)imidazo[1,2-b]pyridazin-3-yl)pyrimidin-4-yl)morpholin-2-yl)methyl)methanesulfonamide] | 10 to 1000 | 500 to 5000
CC1CN(c2cc(-c3cnc4ccc(C(F)(F)F)nn34)ncn2)CC(CNS(C)(=O)=O)C1(F)F (stereo not shown) [II-294, N-((4,4-Difluoro-5-methyl-1-(6-(6-(trifluoromethyl)imidazo[1,2-b]pyridazin-3-yl)pyrimidin-4-yl)piperidin-3-yl)methyl)methanesulfonamide] | 10 to 1000 | > 5000

Results, then the compound that gave them:

Ki (GCN2 kinase) [nM] | IC50 [1] [nM] | SMILES
10 to 1000 | 500 to 5000 | CC(=O)NCC1CCCN(c2cc(-c3cnc4ccc(C(F)F)nn34)ncn2)C1 (stereo not shown) [II-261, N-((1-(6-(6-(Difluoromethyl)imidazo[1,2-b]pyridazin-3-yl)pyrimidin-4-yl)piperidin-3-yl)methyl)acetamide]
10 to 1000 | 500 to 5000 | CS(=O)(=O)N1CC2(CN(c3cc(-c4cnc5ccc(C(F)F)nn45)ncn3)CCO2)C1 [II-273, 8-(6-(6-(Difluoromethyl)imidazo[1,2-b]pyridazin-3-yl)pyrimidin-4-yl)-2-(methylsulfonyl)-5-oxa-2,8-diazaspiro[3.5]nonane]
10 to 1000 | > 5000 | CS(=O)(=O)N1CC2CCN(c3cc(-c4cnc5ccc(C(F)F)nn45)ncn3)C2C1 (stereo not shown) [II-282, 6-(Difluoromethyl)-3-(6-(5-(methylsulfonyl)hexahydropyrrolo[3,4-b]pyrrol-1 (2H)-yl)pyrimidin-4-yl)imidazo[1,2-b]pyridazine]
10 to 1000 | > 5000 | NS(=O)(=O)N1CC2CCN(c3cc(-c4cnc5ccc(C(F)F)nn45)ncn3)C2C1 (stereo not shown) [II-286, 1-(6-(6-(Difluoromethyl)imidazo[1,2-b]pyridazin-3-yl)pyrimidin-4-yl)hexahydropyrrolo[3,4-b]pyrrole-5(1H)-sulfonamide]
10 to 1000 | > 5000 | CS(=O)(=O)N1CCC2(CC1)CN(c1cc(-c3cnc4ccc(C(F)F)nn34)ncn1)CCO2 [II-287, 4-(6-(6-(Difluoromethyl)imidazo[1,2-b]pyridazin-3-yl)pyrimidin-4-yl)-9-(methylsulfonyl)-1-oxa-4,9-diazaspiro[5.5]undecane]
10 to 1000 | > 5000 | CS(=O)(=O)N1CCCC2(CN(c3cc(-c4cnc5ccc(C(F)F)nn45)ncn3)CCO2)C1 (stereo not shown) [II-288, 4-(6-(6-(Difluoromethyl)imidazo[1,2-b]pyridazin-3-yl)pyrimidin-4-yl)-8-(methylsulfonyl)-1-oxa-4,8-diazaspiro[5.5]undecane]
< 10 | < 500 | CS(=O)(=O)NC[C@H]1CCCN(c2cc(-c3cnc4ccc(C(F)(F)F)nn34)ncn2)C1 [II-291, (S)—N-((1-(6-(6-(Trifluoromethyl)imidazo[1,2-b]pyridazin-3-yl)pyrimidin-4-yl)piperidin-3-yl)methyl)methanesulfonamide]
10 to 1000 | 500 to 5000 | CC1CN(c2cc(-c3cnc4ccc(C(F)(F)F)nn34)ncn2)CC(CNS(C)(=O)=O)C1(F)F (stereo not shown) [II-293, N-((4,4-Difluoro-5-methyl-1-(6-(6-(trifluoromethyl)imidazo[1,2-b]pyridazin-3-yl)pyrimidin-4-yl)piperidin-3-yl)methyl)methanesulfonamide]
> 1000 | > 5000 | O=S1(=O)CCN(c2cc(-c3cnc4ccc(C(F)F)nn34)ncn2)CC1 [II-295, 4-(6-(6-(Difluoromethyl)imidazo[1,2-b]pyridazin-3-yl)pyrimidin-4-yl)thiomorpholine 1,1-dioxide]
> 1000 | > 5000 | [O-][S+]1CCN(c2cc(-c3cnc4ccc(C(F)F)nn34)ncn2)CC1 [II-296, 4-(6-(6-(Difluoromethyl)imidazo[1,2-b]pyridazin-3-yl)pyrimidin-4-yl)thiomorpholine 1-oxide]
